According to PMC6116705, “Design, synthesis, in vitro antiproliferative activity and apoptosis-inducing studies of 1-(3′,4′,5′-trimethoxyphenyl)-3-(2′-alkoxycarbonylindolyl)-2-propen-1-one derivatives obtained by a molecular hybridisation approach” (Journal of Enzyme Inhibition and Medicinal Chemistry, 2018):

Key:
[1] = system: human colon adenocarcinoma (HT29) cells; assay: Antiproliferative assay, cell counting (Coulter Counter), HT29; assay type: cell-based; conditions: HT29 cell line, ratio of IC50 values
Description: (§1) Human cervix carcinoma (HeLa), human colon carcinoma (HT29), human breast carcinoma (MCF-7) and human lymphoma (HL-60) cells (3–5 × 10^4 cells) and a serial (five-fold) dilution of the test compounds were added to a 96-well microtiter plate. The cells were incubated for 72–96 h (depending on the tumor cell line) at 37 °C in a humidified 5% CO2 atmosphere. At the end of the incubation period, the cells were counted in a Coulter Counter (Coulter Electronics Ltd, Harpenden Herts, UK). […] The IC50 values represent the average (±standard deviation) of at least two to four independent experiments.

[2] = system: human promyelocytic leukemia (HL-60) cells; assay: Antiproliferative assay, cell counting (Coulter Counter), HL-60; assay type: cell-based; conditions: Homo sapiens; HL-60, 72–96 h; read-out: IC50, inhibition of proliferation
Description: as §1

bovine brain tubulin = assay: Inhibition of tubulin polymerisation (turbidimetric tubulin assembly); assay type: biochemical; conditions: tubulin 10 µM, 20 min at 30 °C; read-out: Tubulin assembly IC50±SD
Description: To evaluate the effect of the compounds on tubulin assembly in vitro[40], varying concentrations of compounds were preincubated with 10 μM bovine brain tubulin in 0.8M monosodium glutamate (pH adjusted to 6.6 with HCl in a 2.0M stock solution) at 30 °C and then cooled to 0 °C. After addition of 0.4 mM GTP, the mixtures were transferred to 0 °C cuvettes in a recording spectrophotometer and warmed to 30 °C. Tubulin assembly was followed turbidimetrically at 350 nm. […] The capacity of the test compounds to inhibit colchicine binding to tubulin was measured as described. The reaction mixtures contained 1 μM tubulin, 5 μM [^3H]colchicine and 5 μM test compound.

[3] = system: human myeloid leukaemia U-937 cells; assay: MTT cytotoxicity assay, U-937; assay type: cell-based; conditions: U-937, MTT, 72 h, read-out: IC50, inhibition of cell growth
Description: U-937 (human myeloid leukaemia) cells from DSMZ (German Collection of Microorganisms and Cell Cultures, Braunschweig, Germany) and U-937 cells overexpressing human Bcl-2 protein (designated U-937/Bcl-2, donated by Dr Jacqueline Bréard, INSERM U749, Faculté de Pharmacie Paris-Sud., Châtenay-Malabry, France) were cultured in RPMI-1640 medium containing 10% (v/v) heat-inactivated foetal bovine serum, 100 μg/mL streptomycin and 100 U/mL penicillin, incubated at 37 °C in a humidified atmosphere containing 5% CO2 as described. The functioning of U-937/Bcl-2 cells was tested using the cytotoxic agent 1-β-D-arabino-furanosylcytosine as previously described. Human peripheral blood mononuclear cells (PBMC) were isolated from heparin-anticoagulated blood of healthy volunteers by centrifugation with Ficoll-Paque Plus (GE Healthcare Bio-Sciences AB, Uppsala, Sweden). PBMC were also stimulated with phytohemagglutinin (2 μg/mL) for 48 h before the experimental treatment. The trypan blue dye exclusion method was used for counting the living/dead cells by a hematocytometer with 95% viability in all experiments. The cytotoxicity of compounds was evaluated by the colorimetric 3-(4,5-dimethyl-2-thiazolyl-)-2,5-diphenyl-2H-tetrazolium bromide (MTT) assay as previously described. Briefly, 5 × 10^3 exponentially growing cells were seeded in 96-well microculture plates with increasing concentrations of compounds for 72 h. After the addition of MTT (0.5 mg/mL), cells were incubated at 37 °C for 4 h. Sodium dodecyl sulphate (10% w/v) in 0.05 M HCl was added to the wells and then incubated at room temperature overnight in the dark. Absorbance was measured at 570 nm. […] Values are mean ± SE from at least three independent experiments, each performed in triplicate. Compounds were dissolved in DMSO and kept in the dark at 25 °C.

U-937 cells = assay: Cell cycle phase distribution and apoptosis, flow cytometry (propidium iodide) and fluorescence microscopy, U-937; assay type: cell-based, human
Description: (§2) Fluorescent microscopy and flow cytometric analysis of propidium iodide-stained cells were performed as described. Briefly, cells were harvested and fixed in 3% paraformaldehyde and incubated at room temperature for 10 min. The fixative was removed, and the cells were washed with PBS, resuspended in 30–50 μL of PBS containing 20 μg/mL bis-benzimide trihydrochloride (Hoechst 33258) and incubated at room temperature for 15 min. Stained nuclei were visualized using a Zeiss fluorescence microscope.
(§3) Flow cytometric analysis was carried out using a BD FACSVerse™ cytometer (BD Biosciences, San Jose, CA, USA).

U-937/Bcl-2 cells = assay: Cell cycle phase distribution and apoptosis, flow cytometry (propidium iodide) and fluorescence microscopy, U-937/Bcl-2; assay type: cell-based, human
Description: as §2, §3

## CCOC(=O)c1[nH]c2cc(OC)ccc2c1/C=C/C(=O)c1cc(OC)c(OC)c(OC)c1 [Compound 9f, (E)-Ethyl 6-methoxy-3-(3-oxo-3-(3,4,5-trimethoxyphenyl)prop-1-en-1-yl)-1H-indole-2-carboxylate]
[1]
  fold more potent than CA-4: 8–24 fold
[2]
  IC50: 5.2 ± 2.2 µM
Bovine brain tubulin
  IC50: 17 ± 2 µM
[3]
  IC50: 6.5 ± 1.7 µM
U-937 cells; U-937, 24 h, 3 µM
  % G1: 42.7 ± 0.5%
  % G2-M: 25.2 ± 0.1%
  % S: 24.6 ± 0.8%
  % Sub-G1: 5.9 ± 0.3%
U-937 cells; U-937, 24 h, 10 µM
  % G1: 36.7 ± 1.8 %
  % G2-M: 23.8 ± 0.4%
  % S: 25.5 ± 0.5%
  % Sub-G1: 11.9 ± 1.6 %
U-937 cells; U-937, 48 h, 3 µM
  % G1: 51.0 ± 0.5%
  % G2-M: 19.2 ± 0.5%
  % S: 24.0 ± 0.3%
  % Sub-G1: 5.1 ± 0.1%
U-937 cells; U-937, 48 h, 10 µM
  % G1: 47.1 ± 1.1 %
  % G2-M: 18.2 ± 0.1%
  % S: 23.4 ± 0.3%
  % Sub-G1: 10.1 ± 0.6 %
U-937 cells; U-937, 72 h, 3 µM
  % G1: 53.1 ± 2.0%
  % G2-M: 16.5 ± 0.6%
  % S: 22.3 ± 1.4%
  % Sub-G1: 6.4 ± 0.6%
U-937 cells; U-937, 72 h, 10 µM
  % G1: 43.3 ± 1.7%
  % G2-M: 15.0 ± 0.6%
  % S: 21.2 ± 1.2%
  % Sub-G1: 19.0 ± 3.3 %
U-937/Bcl-2 cells; U-937/Bcl-2, 24 h, 0.3 µM
  % G1: 26.0 ± 0.9 %
  % G2-M: 41.1 ± 0.4 %
  % S: 25.2 ± 0.3%
  % Sub-G1: 6.2 ± 0.9%
U-937/Bcl-2 cells; U-937/Bcl-2, 24 h, 1 µM
  % G1: 17.6 ± 0.6 %
  % G2-M: 41.0 ± 2.3 %
  % S: 18.1 ± 0.1 %
  % Sub-G1: 20.6 ± 1.6 %
U-937/Bcl-2 cells; U-937/Bcl-2, 48 h, 0.3 µM
  % G1: 27.4 ± 0.8 %
  % G2-M: 31.6 ± 0.3 %
  % S: 26.3 ± 0.4%
  % Sub-G1: 11.1 ± 0.1 %
U-937/Bcl-2 cells; U-937/Bcl-2, 48 h, 1 µM
  % G1: 16.0 ± 0.0 %
  % G2-M: 28.4 ± 1.8 %
  % S: 16.5 ± 1.0 %
  % Sub-G1: 30.2 ± 3.3 %
U-937/Bcl-2 cells; U-937/Bcl-2, 72 h, 0.3 µM
  % G1: 30.3 ± 2.9 %
  % G2-M: 29.4 ± 2.0 %
  % S: 23.8 ± 0.7%
  % Sub-G1: 11.8 ± 0.5 %
U-937/Bcl-2 cells; U-937/Bcl-2, 72 h, 1 µM
  % G1: 14.0 ± 0.6 %
  % G2-M: 22.7 ± 0.2%
  % S: 17.1 ± 1.4%
  % Sub-G1: 37.7 ± 1.5 %
